# Source: ChEMBL document CHEMBL1201862, “PubChem BioAssay data set” (2004)
# Calls of active or inactive are those of the source.
# Legend:
# [1] = molecular target: Kallikrein-7 (Homo sapiens, UniProt P49862); experiment: Fluorescence Intensity-based biochemical primary high throughput dose response assay to identify activators of kallikrein-7 (K7) zymogen.
# [2] = molecular target: T1, Corticotropin-releasing factor receptor 2/Corticotropin-releasing factor-binding protein (Homo sapiens, UniProt P24387+Q13324); experiment: activators of CRF receptor 2 with binding protein – uHTS hits, confirmation (AID 602473); format: functional; settings: read-out: EC50_Mean
# T1 sequence (Q13324 whole entry): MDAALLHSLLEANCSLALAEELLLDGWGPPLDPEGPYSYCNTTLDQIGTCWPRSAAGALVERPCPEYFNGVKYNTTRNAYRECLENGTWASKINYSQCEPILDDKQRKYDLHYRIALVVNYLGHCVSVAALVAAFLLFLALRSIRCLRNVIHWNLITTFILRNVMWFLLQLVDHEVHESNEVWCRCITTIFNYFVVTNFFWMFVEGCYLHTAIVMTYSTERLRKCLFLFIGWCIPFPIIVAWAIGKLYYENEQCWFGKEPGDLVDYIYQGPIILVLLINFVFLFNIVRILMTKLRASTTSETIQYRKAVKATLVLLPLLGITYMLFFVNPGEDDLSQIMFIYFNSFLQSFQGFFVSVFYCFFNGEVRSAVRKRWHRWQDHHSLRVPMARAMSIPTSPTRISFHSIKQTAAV
# T1 sequence (P24387 whole entry): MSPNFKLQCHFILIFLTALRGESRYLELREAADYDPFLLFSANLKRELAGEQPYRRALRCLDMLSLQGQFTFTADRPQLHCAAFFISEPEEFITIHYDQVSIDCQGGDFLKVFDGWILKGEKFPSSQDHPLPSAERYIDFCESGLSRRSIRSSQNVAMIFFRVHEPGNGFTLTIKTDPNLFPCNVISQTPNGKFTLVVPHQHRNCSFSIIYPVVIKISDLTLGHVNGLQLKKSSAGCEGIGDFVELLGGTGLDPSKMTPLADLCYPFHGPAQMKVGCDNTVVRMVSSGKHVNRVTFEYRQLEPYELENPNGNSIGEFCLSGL
# [3] = molecular target: T1, Corticotropin-releasing factor receptor 2/Corticotropin-releasing factor-binding protein; experiment: Dose Response confirmation of uHTS hits for small molecule antagonists of the CRF-binding protein and CRF-R2 receptor complex.; format: functional; settings: read-out: IC50_Mean
# [4] = molecular target: Mu-type opioid receptor (Homo sapiens, UniProt P35372); format: functional, cell-based;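 further: U2OS cells with beta-arrestin recruitment to OPRM1 by beta-gal complementation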
# [5] = molecular target: 5-hydroxytryptamine receptor 2A (Mus musculus, UniProt P35363); format: functional, cell-based;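 further: CHO-K1 cells with tagged receptor and beta-arrestin; agonist potency measured as compound-induced activation of the receptor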
# [6] = molecular target: T2, Sentrin-specific protease 8 (Homo sapiens, UniProt Q96LD8); format: functional
# T2 sequence (Q96LD8 whole entry): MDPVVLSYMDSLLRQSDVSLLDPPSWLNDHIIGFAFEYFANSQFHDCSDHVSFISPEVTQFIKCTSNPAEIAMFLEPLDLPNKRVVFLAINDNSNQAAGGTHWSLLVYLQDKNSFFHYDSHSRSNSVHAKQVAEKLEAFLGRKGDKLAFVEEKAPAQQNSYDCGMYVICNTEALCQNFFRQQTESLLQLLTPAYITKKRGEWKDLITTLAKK
# [7] = molecular target: T2, Sentrin-specific protease 8; format: functional; remark: listed apart in the source
# [8] = HEK293T cytotoxicity, dose response, cytotoxicity control for miR-122 modulator project, cell-based, inhibitor set, cherry-pick, set 2 (AID 720697); format: functional
# [9] = HEK293T cytotoxicity, dose response, cytotoxicity control for miR-122 modulator project, cell-based, activator set, cherry-pick (AID 720690); format: functional;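 further: HEK293T human cells scored for general mammalian cytotoxicity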
# [10] = molecular target: SWI/SNF-related matrix-associated actin-dependent regulator of chromatin subfamily A member 2 (Homo sapiens, UniProt P51531); experiment: Luminescence-based cell-based high throughput dose response assay to identify activators of the function of SWI/SNF related, matrix associated, actin dependent regulator of chromatin, subfamily a, member 2 (SMARCA2, BRM).; format: functional
# [11] = Counterscreen for activators of the function of SWI/SNF related, matrix associated, actin dependent regulator of chromatin, subfamily a, member 2 (SMARCA2, BRM): Luminescence-based cell-based high throughput dose response assay to identify non-selective compounds using the VP16 reporter assay.; format: functional
# [12] = cytotoxicity in OVCAR8 ovarian cancer cells, dose response, PAX8 project, cell-based, plate reader, dry powder samples (AID 743197); format: functional; settings: OVCAR-8
# [13] = NIH:OVCAR-3 ovarian cancer cell cytotoxicity, dose response, PAX8 inhibitor project, plate reader, dry powder samples (AID 743044); format: functional, cell-based
# [14] = molecular target: Paired box protein Pax-8 (Homo sapiens, UniProt Q06710); experiment: inhibitors of PAX8-driven TPO luciferase reporter, dose response, RMG-I cells, cherry-pick (AID 687027); format: functional, cell-based;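 further: luciferase reporter driven by Pax8 target thyroperoxidase promoter measured by SteadyGlo luminescence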
# [15] = cells
# [16] = molecular target: T3, Oxysterols receptor LXR-beta (Homo sapiens, UniProt P55055); format: functional, cell-based;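 further: Cell-based luminescence dose-response assay of agonist activity at LXR, run as a confirmatory counterscreen to a daf-12 agonist screen; HEK293 cells with Gal4-LXR fusion and GAL4-driven luciferase reporter; agonist potency from rising luciferase signal of a Gal4-LXR reporter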
# T3 sequence (P55055 whole entry): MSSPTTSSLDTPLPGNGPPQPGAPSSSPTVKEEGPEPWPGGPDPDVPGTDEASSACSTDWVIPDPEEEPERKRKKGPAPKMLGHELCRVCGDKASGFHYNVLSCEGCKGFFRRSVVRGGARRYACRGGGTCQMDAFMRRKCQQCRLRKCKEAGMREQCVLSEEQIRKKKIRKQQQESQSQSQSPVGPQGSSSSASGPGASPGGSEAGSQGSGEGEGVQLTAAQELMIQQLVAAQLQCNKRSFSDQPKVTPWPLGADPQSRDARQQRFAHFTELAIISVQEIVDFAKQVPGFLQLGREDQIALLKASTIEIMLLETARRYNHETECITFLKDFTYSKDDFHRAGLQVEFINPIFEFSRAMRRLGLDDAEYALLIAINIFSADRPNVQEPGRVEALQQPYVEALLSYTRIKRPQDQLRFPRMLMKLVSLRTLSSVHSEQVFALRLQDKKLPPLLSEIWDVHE
# [17] = molecular target: Metabotropic glutamate receptor 3 (Rattus norvegicus, UniProt P31422); experiment: mGlu3 negative allosteric modulator potency, dose response, HEK/GIRK cells, thallium flux, rat (AID 651839); format: functional
# Sequence of Metabotropic glutamate receptor 3 (P31422 whole entry): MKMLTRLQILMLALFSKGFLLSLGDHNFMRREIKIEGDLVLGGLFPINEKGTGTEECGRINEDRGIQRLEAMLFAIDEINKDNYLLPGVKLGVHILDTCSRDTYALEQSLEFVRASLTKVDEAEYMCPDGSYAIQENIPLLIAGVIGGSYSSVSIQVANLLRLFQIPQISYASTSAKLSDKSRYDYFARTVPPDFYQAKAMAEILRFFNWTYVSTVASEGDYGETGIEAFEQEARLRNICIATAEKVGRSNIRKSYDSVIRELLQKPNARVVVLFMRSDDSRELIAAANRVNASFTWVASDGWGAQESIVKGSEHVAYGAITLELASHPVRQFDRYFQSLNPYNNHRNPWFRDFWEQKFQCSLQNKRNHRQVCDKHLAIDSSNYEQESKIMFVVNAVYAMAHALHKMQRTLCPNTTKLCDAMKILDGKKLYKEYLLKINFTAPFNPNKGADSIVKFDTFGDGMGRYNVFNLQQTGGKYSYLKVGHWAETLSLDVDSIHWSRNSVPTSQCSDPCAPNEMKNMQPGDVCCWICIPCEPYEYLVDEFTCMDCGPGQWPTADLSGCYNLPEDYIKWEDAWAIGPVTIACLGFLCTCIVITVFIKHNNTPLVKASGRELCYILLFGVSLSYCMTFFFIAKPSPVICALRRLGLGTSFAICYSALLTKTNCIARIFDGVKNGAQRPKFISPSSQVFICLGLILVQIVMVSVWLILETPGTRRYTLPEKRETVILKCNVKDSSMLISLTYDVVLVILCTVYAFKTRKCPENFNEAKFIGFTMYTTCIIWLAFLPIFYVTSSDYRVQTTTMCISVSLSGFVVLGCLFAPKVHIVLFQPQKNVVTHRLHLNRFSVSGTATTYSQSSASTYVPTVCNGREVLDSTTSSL
# Sequence of 5-hydroxytryptamine receptor 2A (P35363 whole entry): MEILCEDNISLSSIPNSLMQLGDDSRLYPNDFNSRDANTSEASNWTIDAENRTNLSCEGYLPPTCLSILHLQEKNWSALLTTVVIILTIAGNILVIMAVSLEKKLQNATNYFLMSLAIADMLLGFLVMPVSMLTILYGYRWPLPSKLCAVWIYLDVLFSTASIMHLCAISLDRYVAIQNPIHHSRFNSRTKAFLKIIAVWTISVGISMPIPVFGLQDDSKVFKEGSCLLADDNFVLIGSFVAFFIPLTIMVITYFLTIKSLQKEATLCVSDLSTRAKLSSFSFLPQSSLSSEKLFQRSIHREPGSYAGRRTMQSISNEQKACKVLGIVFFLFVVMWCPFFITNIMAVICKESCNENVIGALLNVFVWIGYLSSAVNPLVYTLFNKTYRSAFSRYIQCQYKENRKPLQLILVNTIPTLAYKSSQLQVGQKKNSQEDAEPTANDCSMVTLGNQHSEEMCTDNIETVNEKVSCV
# Sequence of Mu-type opioid receptor (P35372 whole entry): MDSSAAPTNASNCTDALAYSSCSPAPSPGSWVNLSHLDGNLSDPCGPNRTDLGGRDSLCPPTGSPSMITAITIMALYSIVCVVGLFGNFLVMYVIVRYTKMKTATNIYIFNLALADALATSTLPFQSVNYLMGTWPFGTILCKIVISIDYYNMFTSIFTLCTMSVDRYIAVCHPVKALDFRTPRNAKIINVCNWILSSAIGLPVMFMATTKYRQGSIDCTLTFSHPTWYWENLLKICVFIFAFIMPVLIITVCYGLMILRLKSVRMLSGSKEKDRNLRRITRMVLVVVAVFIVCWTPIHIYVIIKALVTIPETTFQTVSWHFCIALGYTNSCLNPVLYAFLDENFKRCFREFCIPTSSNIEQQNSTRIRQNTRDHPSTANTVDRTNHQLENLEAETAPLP
# Sequence of Paired box protein Pax-8 (Q06710 whole entry): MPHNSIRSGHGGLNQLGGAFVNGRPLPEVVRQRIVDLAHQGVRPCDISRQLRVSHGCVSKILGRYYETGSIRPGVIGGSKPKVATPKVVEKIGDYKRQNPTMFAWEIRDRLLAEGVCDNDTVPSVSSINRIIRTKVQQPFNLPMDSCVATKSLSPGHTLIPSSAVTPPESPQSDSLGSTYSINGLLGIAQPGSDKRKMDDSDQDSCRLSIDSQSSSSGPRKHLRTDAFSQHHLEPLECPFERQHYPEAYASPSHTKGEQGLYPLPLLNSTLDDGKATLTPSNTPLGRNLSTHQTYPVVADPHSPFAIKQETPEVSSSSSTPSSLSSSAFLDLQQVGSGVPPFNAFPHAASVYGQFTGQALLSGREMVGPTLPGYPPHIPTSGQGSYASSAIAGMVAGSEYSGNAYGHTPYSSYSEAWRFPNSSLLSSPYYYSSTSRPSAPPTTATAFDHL
# Sequence of SWI/SNF-related matrix-associated actin-dependent regulator of chromatin subfamily A member 2 (P51531 whole entry): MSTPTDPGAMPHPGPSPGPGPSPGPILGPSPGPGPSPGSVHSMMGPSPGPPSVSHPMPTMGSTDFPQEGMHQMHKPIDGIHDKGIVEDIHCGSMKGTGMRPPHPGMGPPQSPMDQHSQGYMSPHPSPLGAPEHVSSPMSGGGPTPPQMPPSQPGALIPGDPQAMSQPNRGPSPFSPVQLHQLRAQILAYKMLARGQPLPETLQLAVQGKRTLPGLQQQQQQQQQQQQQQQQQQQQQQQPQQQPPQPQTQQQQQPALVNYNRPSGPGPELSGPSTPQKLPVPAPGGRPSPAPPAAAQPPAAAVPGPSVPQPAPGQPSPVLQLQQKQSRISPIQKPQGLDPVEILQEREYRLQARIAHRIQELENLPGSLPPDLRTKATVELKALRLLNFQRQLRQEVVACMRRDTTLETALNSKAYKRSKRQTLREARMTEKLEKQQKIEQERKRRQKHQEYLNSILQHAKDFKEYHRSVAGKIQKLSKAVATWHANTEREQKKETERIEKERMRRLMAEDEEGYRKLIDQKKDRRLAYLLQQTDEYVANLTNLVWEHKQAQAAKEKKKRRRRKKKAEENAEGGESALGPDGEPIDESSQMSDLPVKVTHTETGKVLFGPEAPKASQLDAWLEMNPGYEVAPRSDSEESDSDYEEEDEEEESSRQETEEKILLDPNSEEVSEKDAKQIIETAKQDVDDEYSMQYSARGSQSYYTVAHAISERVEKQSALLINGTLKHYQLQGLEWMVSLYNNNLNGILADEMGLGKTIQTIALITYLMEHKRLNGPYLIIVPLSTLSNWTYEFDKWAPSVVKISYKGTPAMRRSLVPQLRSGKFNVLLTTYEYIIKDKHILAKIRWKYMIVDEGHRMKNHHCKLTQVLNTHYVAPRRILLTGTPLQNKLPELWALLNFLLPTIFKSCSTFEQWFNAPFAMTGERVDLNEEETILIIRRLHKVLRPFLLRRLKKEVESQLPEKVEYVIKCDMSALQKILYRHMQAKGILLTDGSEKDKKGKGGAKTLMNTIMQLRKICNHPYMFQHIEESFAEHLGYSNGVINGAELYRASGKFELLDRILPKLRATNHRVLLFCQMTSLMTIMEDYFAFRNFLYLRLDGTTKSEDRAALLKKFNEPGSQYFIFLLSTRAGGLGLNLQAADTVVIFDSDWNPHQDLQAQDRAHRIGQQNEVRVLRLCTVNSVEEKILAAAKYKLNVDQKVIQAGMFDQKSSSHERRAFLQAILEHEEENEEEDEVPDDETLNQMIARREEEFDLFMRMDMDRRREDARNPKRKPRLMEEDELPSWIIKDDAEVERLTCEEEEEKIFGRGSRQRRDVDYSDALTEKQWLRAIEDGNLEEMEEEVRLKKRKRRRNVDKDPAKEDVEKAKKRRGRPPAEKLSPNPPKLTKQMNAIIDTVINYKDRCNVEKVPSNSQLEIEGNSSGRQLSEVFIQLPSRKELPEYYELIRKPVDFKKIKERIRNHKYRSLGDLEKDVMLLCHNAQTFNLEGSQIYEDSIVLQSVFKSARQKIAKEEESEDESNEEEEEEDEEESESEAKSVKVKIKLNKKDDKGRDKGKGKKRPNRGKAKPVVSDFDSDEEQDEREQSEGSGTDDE
# Sequence of Kallikrein-7 (P49862 whole entry): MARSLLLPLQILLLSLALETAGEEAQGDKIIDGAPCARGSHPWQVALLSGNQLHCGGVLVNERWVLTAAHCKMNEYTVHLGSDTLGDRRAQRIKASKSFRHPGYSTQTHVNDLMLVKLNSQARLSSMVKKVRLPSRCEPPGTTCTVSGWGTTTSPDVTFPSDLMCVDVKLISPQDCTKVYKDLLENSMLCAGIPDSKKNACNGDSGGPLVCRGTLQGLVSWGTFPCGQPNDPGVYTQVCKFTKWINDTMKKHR
compound,measurement,setting,value
O=C(NCCCN1CCOCC1)c1cc2nc(-c3ccco3)cc(C(F)(F)F)n2n1,EC50,[1],> 69.5 µM (inactive)
CC(=O)N1CCC(N2CCCC(C(=O)c3cccc(Cl)c3)C2)CC1 (centres undefined),EC50,[2],> 53 µM (inactive)
same,IC50,[3],> 47.1 µM (inactive)
same,EC50,[4],92.5 µM (inactive)
same,EC50,[5],0.764 µM (active)
CCC(=O)c1ccc(OCc2cn(CC(=O)c3ccc(O)cc3)nn2)cc1,IC50,[6],12.5 µM (active)
same,IC50,[7],7.63 µM (active)
CC(C)N(C[C@@H]1N[C@@H](CO)[C@@H]1c1ccccc1)S(=O)(=O)c1ccccc1,AC50,[8],0.473 µM (active)
same,AC50,[9],32.2 µM (active)
COc1ccc(OCc2ccc(/C=N\NC(=O)c3sccc3C)o2)cc1,EC50,[10],> 91.2 µM (inactive)
same,EC50,[11],> 91.2 µM (inactive)
C[C@@H]1CN([C@H](C)CO)C(=O)c2cc(NC(=O)Cc3ccccc3)ccc2O[C@@H](C)CCCCO[C@H]1CN(C)Cc1ccc(C(F)(F)F)cc1,AC50,[8],0.795 µM (active)
same,AC50,[12],63.1 µM (active)
same,AC50,[13],3.83 µM (active)
same,AC50,[14],3.98 µM (active)
same,AC50,[9],13.8 µM (active)
Cc1cc(C(=O)Cn2nnc3ccccc3c2=O)c(C)n1Cc1cccs1,EC50,[15],> 67.6 µM (inactive)
same,EC50,[16],> 67.6 µM (inactive)
O=C(c1ccc2cc(-c3ccccc3OCc3ccccc3)ccc2c1)N1CCCC(CO)C1 (centres undefined),IC50,[17],9.35 µM (active)
